Literature values as cited in patent US20130243825A1, “COMPOSITIONS AND METHODS FOR THE TREATMENT OF SKIN DISEASES” (priority 2012, published 2013).
Entries after “also recorded” stand apart in the source; their conditions may differ.

test system: vasoconstriction; details: seven potency groups, I ultra high to VII least potent; Ference and Last 2009

Compound	potency group by strength in standard vasoconstriction assay
C[C@@H]1C[C@H]2[C@@H]3CCC4=CC(=O)C=C[C@]4(C)[C@@]3(F)[C@@H](O)C[C@]2(C)[C@H]1C(=O)CO [Desoximetasone 0.25%, Desoximetasone]	High (II)
CCC(=O)O[C@]1(C(=O)SCF)[C@H](C)C[C@H]2[C@@H]3C[C@H](F)C4=CC(=O)C=C[C@]4(C)[C@@]3(F)[C@@H](O)C[C@@]21C [Fluticasone propionate 0.05%, Fluticasone propionate]	Medium (IV and V)
CCCCC(=O)O[C@]1(C(=O)CO)[C@@H](C)C[C@H]2[C@@H]3CCC4=CC(=O)C=C[C@]4(C)[C@@]3(F)[C@@H](O)C[C@@]21C [Betamethasone valerate 0.1%, Betamethasone valerate]	Medium (IV and V)
CCCC(=O)O[C@]1(C(=O)COC(=O)CC)CC[C@H]2[C@@H]3CCC4=CC(=O)CC[C@]4(C)[C@H]3[C@@H](O)C[C@@]21C [Hydrocortisone probutate 0.1%, Hydrocortisone probutate]	Medium (IV and V)
CC(=O)OCC(=O)[C@@]12OC(C)(C)O[C@@H]1C[C@H]1[C@@H]3C[C@H](F)C4=CC(=O)C=C[C@]4(C)[C@@]3(F)[C@@H](O)C[C@@]12C [Fluocinonide 0.1%, Fluocinonide]	Ultra high (I)
CC(=O)OCC(=O)[C@@]12OC(C)(C)O[C@@H]1C[C@H]1[C@@H]3C[C@H](F)C4=CC(=O)C=C[C@]4(C)[C@@]3(F)[C@@H](O)C[C@@]12C [Fluocinonide 0.05%, Fluocinonide]	High (II)
CCCCC(=O)O[C@]1(C(=O)CO)CC[C@H]2[C@@H]3CCC4=CC(=O)CC[C@]4(C)[C@H]3[C@@H](O)C[C@@]21C [Hydrocortisone valerate 0.2%, Hydrocortisone valerate]	Medium (IV and V)
CC1(C)O[C@@H]2C[C@H]3[C@@H]4CCC5=CC(=O)C=C[C@]5(C)[C@H]4[C@@H](O)C[C@]3(C)[C@]2(C(=O)CO)O1 [Desonide 0.05%, Desonide]	Low (VI)
CC1(C)O[C@@H]2C[C@H]3[C@@H]4CCC5=CC(=O)CC[C@]5(C)[C@@]4(F)[C@@H](O)C[C@]3(C)[C@]2(C(=O)CCl)O1 [Halcinonide 0.1%, Halcinonide]	High (II)
C[C@@H]1C[C@H]2[C@@H]3CCC4=CC(=O)C=C[C@]4(C)[C@@]3(F)[C@@H](O)C[C@]2(C)[C@H]1C(=O)CO [Desoximetasone 0.05%, Desoximetasone]	Medium (IV and V)
CC1(C)O[C@@H]2C[C@H]3[C@@H]4C[C@H](F)C5=CC(=O)C=C[C@]5(C)[C@@]4(F)[C@@H](O)C[C@]3(C)[C@]2(C(=O)CO)O1 [Fluocinolone acetonide 0.025%, Fluocinolone acetonide]	Medium (IV and V)
C[C@@H]1C[C@H]2[C@@H]3CCC4=CC(=O)C=C[C@]4(C)[C@@]3(Cl)[C@@H](O)C[C@]2(C)[C@@]1(OC(=O)c1ccco1)C(=O)CCl [Mometasone furoate 0.1%, Mometasone furoate]	Medium (IV and V)
CCC(=O)O[C@]1(C(=O)CCl)[C@@H](C)C[C@H]2[C@@H]3CCC4=CC(=O)C=C[C@]4(C)[C@@]3(F)[C@@H](O)C[C@@]21C [Clobetasol propionate 0.05%, Clobetasol propionate]	Ultra high (I)
Augmented betamethasone dipropionate	Ultra high (I); also recorded: High (II)
CCC(=O)OCC(=O)[C@@]1(OC(=O)CC)[C@H](C)C[C@H]2[C@H]3[C@H]([C@@H](O)C[C@@]21C)[C@@]1(C)C=CC(=O)C=C1C[C@H]3Cl [Alclometasone dipropionate 0.05%, Alclometasone dipropionate]	Low (VI)
CCC(=O)O[C@]1(C(=O)SCF)[C@H](C)C[C@H]2[C@@H]3C[C@H](F)C4=CC(=O)C=C[C@]4(C)[C@@]3(F)[C@@H](O)C[C@@]21C [Fluticasone propionate 0.005%, Fluticasone propionate]	Medium to high (III)
CCCC(=O)O[C@]1(C(=O)CO)CC[C@H]2[C@@H]3CCC4=CC(=O)CC[C@]4(C)[C@H]3[C@@H](O)C[C@@]21C [Hydrocortisone butyrate 0.1%, Hydrocortisone butyrate]	Medium (IV and V); also recorded: Low (VI)
C[C@]12CCC(=O)C=C1CC[C@@H]1[C@@H]2[C@@H](O)C[C@@]2(C)[C@H]1CC[C@]2(O)C(=O)CO [Hydrocortisone 1%, 2.5%, Hydrocortisone]	Least potent (VII)

test system: standardized wounds created by sequential tape stripping; details: applied to a wound for 15 seconds, 24 subjects; Pagnoni et al. 2004

Compound	stinging/burning sensation
CC(C)O [70% isopropyl alcohol, isopropyl alcohol]	stung
